In patent US5602100A, “Dermorphin analogs having pharmacological activity” (priority 1988, dated 1997):
Where two headings read alike, the source gives them in different places. Non-standard residues stand in square brackets, D forms with d. Residues, ends and D or L forms follow the SMILES beside them. dNle = CCCC[C@@H](N)C(=O)O; dNva = CCC[C@@H](N)C(=O)O; Orn = NCCC[C@H](N)C(=O)O; Dab = NCC[C@H](N)C(=O)O

Columns and labels:
δ-opioid receptor = target: T1, δ-opioid receptor (Rattus norvegicus, UniProt P33533); assay: biochemical; format: binding
T1 construct: displacement of the radioligands from the rat brain membrane preparations; from tissue; host or cells: rat brain membrane preparations
T1 sequence (P33533 whole entry): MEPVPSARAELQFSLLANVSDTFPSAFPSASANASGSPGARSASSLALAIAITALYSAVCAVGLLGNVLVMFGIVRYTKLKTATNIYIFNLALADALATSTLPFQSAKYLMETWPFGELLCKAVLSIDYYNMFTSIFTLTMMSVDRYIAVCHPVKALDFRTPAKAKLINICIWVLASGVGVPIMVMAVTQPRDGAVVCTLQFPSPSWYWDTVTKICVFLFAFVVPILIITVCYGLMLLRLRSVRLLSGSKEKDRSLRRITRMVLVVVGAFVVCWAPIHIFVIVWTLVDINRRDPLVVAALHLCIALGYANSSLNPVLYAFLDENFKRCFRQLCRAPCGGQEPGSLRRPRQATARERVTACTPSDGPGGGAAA

hot plate stimulus = assay: Mouse hot plate test; format: in vivo; settings: for Hot plate ED50: mouse, in vivo; for ratio of ED50 for PBQ assay over ED50 for the hot plate assay: peripheral/central activity ratio
Protocol: The mouse hot plate test is an assay which only detects centrally-mediated analgesic effects. This test was carried out using the protocol described in G. Woolfe and A. MacDonald, J. Pharmacol. Exp. Ther., 80, p. 300 ([…]).
Since most of the peptides of the invention were not potent centrally, it was impossible to determine an ED50 value. […] A result is considered insignificant if 30% of mice or lower have responded.

[1] = Respiration rate (respiratory depression); format: in vivo, rat; settings: control 142 ± 5
Protocol: In addition to the mouse writhing data, respiratory depression was measured in certain treated mice. Respiratory depression is a commonly observed side effect characteristic of centrally-acting opiates. These reulsts are expressed in Table 5.

guinea pig ileum (GPI) [2] = assay: Ke values for naloxone as antagonist in the GPI assay; format: cell-based; settings: mean of three determinations ± SEM
Protocol: κ-receptor interactions were determined by measuring Ke values for naloxone as an antagonist in the GPI assay. High Ke values (in the range of 20-30 nM) are associated with κ-receptor interactions. Low Ke values (in the range of 1-2 nM) are associated with μ-receptor interactions. Ke values for naloxone were determined from the ratio of IC50 values obtained in the presence of and in the absence of a fixed naloxone concentration. The IC50 values of the tested compounds were normalized according to published procedure (F. M. Leslie, "Methods Used for the Study of Opioid Receptors", Pharmacological Reviews, 39 (1987)).

PBQ-induced writhing [3] = assay: Mouse writhing test (PBQ); format: in vivo; settings: for PBQ (20 min.) ED50: dose reducing the number of writhes by 50%
Protocol: The mouse writhing test detects both peripherally and centrally mediated analgesic effects. The test procedure is described in Siegmund et al., Proc. Soc. Exp. Biol. Med., 95, p. 729 (1957). In this test, a control group of albino mice was injected intraperitoneally with 0.3 ml/20 g body weight of a 0.02% solution of 2-phenyl-1,4-benzoquinone (PBQ). The writhing and contortional movements of the mice over the following 15 minutes were recorded. A second group of mice was given a dose of a synthetic dermorphin analog according to this invention, then allowed to wait a period of time before being administered the PBQ injection. The average number of writhes was then recorded and compared to the control group. The results of this test are expressed as the dosage of peptide that reduces the number of writhes by 50% at a given time interval (referred to as ED50).

mouse vas deferens (MVD) = format: cell-based
PBQ-induced writhing [4] = assay: Mouse writhing test with prior N-methyllevallorphan (NML); format: in vivo; settings: 10 mg/kg N-methyllevallorphan before peptide
Protocol: A variation of the mouse writhing experiment was also conducted to determine peripheral versus central binding preferences of certain peptides of this invention. In this experiment, 10 mg/kg of N-methyllevallorphan (NML), a known peripheral opioid antagonist, was administered to the mice before injection of the synthetic dermorphin peptide.

guinea pig ileum (GPI) [5] = format: cell-based
μ-opioid receptor = target: T2, μ-opioid receptor (Rattus norvegicus, UniProt P33535); assay: biochemical; format: binding
T2 construct: displacement of the radioligands from the rat brain membrane preparations; from tissue; host or cells: rat brain membrane preparations
T2 sequence (P33535 whole entry): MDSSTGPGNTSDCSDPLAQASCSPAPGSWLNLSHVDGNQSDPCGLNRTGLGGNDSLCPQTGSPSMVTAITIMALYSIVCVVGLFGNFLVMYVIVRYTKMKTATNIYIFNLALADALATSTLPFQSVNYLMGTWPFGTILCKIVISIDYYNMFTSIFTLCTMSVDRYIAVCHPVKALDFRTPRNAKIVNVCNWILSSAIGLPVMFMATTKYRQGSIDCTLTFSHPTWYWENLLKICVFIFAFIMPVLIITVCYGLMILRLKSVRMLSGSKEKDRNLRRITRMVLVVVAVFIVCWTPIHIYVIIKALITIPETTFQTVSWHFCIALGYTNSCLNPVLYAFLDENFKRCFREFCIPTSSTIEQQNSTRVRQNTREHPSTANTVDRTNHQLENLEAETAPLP

Compound	Ki (δ-opioid receptor; read-out: [3H]HSLET Ki^δ)	Breaths per min. ([1]; dose 30 mg/kg)	Ke (naloxone) (guinea pig ileum (GPI) [2])	PBQ (20 min.) ED50 (PBQ-induced writhing [3])	IC50 (mouse vas deferens (MVD))	Antagonism of antinociceptive effect by prior NML (PBQ-induced writhing [4])	IC50 (guinea pig ileum (GPI) [5])	MVD relative potency (mouse vas deferens (MVD))	GPI relative potency (guinea pig ileum (GPI) [5])	MVD/GPI IC50 ratio (guinea pig ileum (GPI) [5])	Ki^δ /Ki^μ (μ-opioid receptor)	% of animals showing a 50% increase (hot plate stimulus; dose 40 mg/kg, time 120 min.)	Ki (δ-opioid receptor)	Ki (μ-opioid receptor)	also measured
NCCCC[C@H](NC(=O)[C@H](Cc1ccccc1)NC(=O)[C@@H](CCCN=C(N)N)NC(=O)[C@@H](N)Cc1ccc(O)cc1)C(N)=O [BCH-150, H-Tyr-D-Arg-Phe-Lys-NH2]	19200 nM	121 ± 6 breaths per min.	1.17 ± 0.08 nm	0.65 mg/kg	781 ± 146 nM	partially or totally antagonized	338 ± 41 nM								Hot plate ED50 (hot plate stimulus): 19 mg/kg
CCC[C@@H](NC(=O)[C@@H](N)Cc1ccc(O)cc1)C(=O)N[C@@H](Cc1ccccc1)C(=O)N[C@@H](CCCN)C(N)=O [BCH-752, H-Tyr-D-Nva-Phe-Orn-NH2] (H-Y[dNva]F[Orn]-NH2)	2200 nM	122 ± 14 breaths per min.	1.55 ± 0.23 nm	0.2 mg/kg	271 ± 63 nM	partially or totally antagonized	104 ± 15 nM	0.0420 ± 0.0098	2.36 ± 0.33	2.61	1880				Hot plate ED50 (hot plate stimulus): 5.2 mg/kg; ratio of ED50 for PBQ assay over ED50 for the hot plate assay (hot plate stimulus): 26; Ki (μ-opioid receptor; read-out: [3H]DAGO Ki^μ): 1.17 nM
CCCC[C@@H](NC(=O)[C@@H](N)Cc1ccc(O)cc1)C(=O)N[C@@H](Cc1ccccc1)C(=O)N[C@@H](CCCN)C(N)=O [BCH-1763, H-Tyr-D-Nle-Phe-Orn-NH2] (H-Y[dNle]F[Orn]-NH2)	2870 nM	162 ± 10 breaths per min.	1.01 ± 0.18 nm	0.3 mg/kg	2290 ± 270 nM		168 ± 33 nM	0.00498 ± 0.00058	1.46 ± 0.29	13.6	2130	90%			Ki (μ-opioid receptor; read-out: [3H]DAGO Ki^μ): 1.35 nM
N=C(N)NCCC[C@@H](NC(=O)[C@@H](N)Cc1ccc(O)cc1)C(=O)N[C@@H](Cc1ccccc1)C(=O)N[C@@H](CCN)C(N)=O [BCH-1764, H-Tyr-D-Arg-Phe-A2 bu-NH2] (H-Y[dR]F[Dab]-NH2)			1.32 ± 0.05 nm	0.13 mg/kg	659 ± 123 nM		257 ± 56 nM	0.0173 ± 0.0032	0.956 ± 0.208	2.56	2180		12600 nM	5.78 nM	% of animals showing a 50% increase (hot plate stimulus; dose 40 mg/kg, time 60 min.): 100%
N=C(N)NCCC[C@@H](NC(=O)[C@@H](N)Cc1ccc(O)cc1)C(=O)N[C@@H](Cc1ccccc1)C(=O)N[C@@H](CCCN)C(N)=O [BCH-1765, H-Tyr-D-Arg-Phe-Orn-NH2]	9290 nM		1.24 ± 0.12 nm	< 1 mg/kg	1090 ± 279 nM		346 ± 121 nM	0.0105 ± 0.0027	0.712 ± 0.249	3.15	7740	100%			Ki (μ-opioid receptor; read-out: [3H]DAGO Ki^μ): 1.2 nM
C[C@@H](NC(=O)[C@@H](N)Cc1ccc(O)cc1)C(=O)N[C@@H](Cc1ccccc1)C(=O)N[C@@H](CCCCN)C(N)=O [BCH-1789, H-Tyr-D-Ala-Phe-Lys-NH2] (H-Y[dA]FK-NH2)		182 ± 24 breaths per min.		0.6 mg/kg							133	40%	4430 nM	33.3 nM	% of animals showing a 50% increase (hot plate stimulus; dose 100 mg/kg, time 60 min.): 80%
CCC[C@@H](NC(=O)[C@@H](N)Cc1ccc(O)cc1)C(=O)N[C@@H](Cc1ccccc1)C(=O)N[C@@H](CCCCN)C(N)=O [BCH-2200, H-Tyr-D-Nva-Phe-Lys-NH2] (H-Y[dNva]FK-NH2)				0.3 mg/kg		partially or totally antagonized					> 1110		> 2530 nM	2.27 nM	
CCCC[C@@H](NC(=O)[C@@H](N)Cc1ccc(O)cc1)C(=O)N[C@@H](Cc1ccccc1)C(=O)N[C@@H](CCCCN)C(N)=O [BCH-2205, H-Tyr-D-Nle-Phe-Lys-NH2] (H-Y[dNle]FK-NH2)		158 ± 7 breaths per min.		1.8 mg/kg							306		3800 nM	12.4 nM	% of animals showing a 50% increase (hot plate stimulus; dose 40 mg/kg, time 30 min.): 60%; % of animals showing a 50% increase (hot plate stimulus; dose 100 mg/kg, time 60 min.): 60%; Breaths per min. ([1]; dose 100 mg/kg): 150 ± 4 breaths per min.
CC(C)[C@@H](NC(=O)[C@@H](N)Cc1ccc(O)cc1)C(=O)N[C@@H](Cc1ccccc1)C(=O)N[C@@H](CCCCN)C(N)=O [BCH-2206, H-Tyr-D-Val-Phe-Lys-NH2] (H-Y[dV]FK-NH2)		168 ± 13 breaths per min.		4.8 mg/kg							> 384	30%	> 2530 nM	6.58 nM	% of animals showing a 50% increase (hot plate stimulus; dose 100 mg/kg, time 120 min.): 90%
CC(C)C[C@H](NC(=O)[C@H](Cc1ccccc1)NC(=O)CNC(=O)CNC(=O)[C@@H](N)Cc1ccc(O)cc1)C(=O)O [Leu-enkephalin, [Leu^5]enkephalin, reference compound]			1.53 ± 0.43 nm												
CN1CC[C@]23c4c5ccc(O)c4O[C@H]2[C@@H](O)C=C[C@H]3[C@H]1C5 [morphine, reference compound]		104 ± 6 breaths per min.				not antagonized									ED50 (hot plate stimulus; Mus musculus): 2.7 mg/kg; ratio of ED50 for PBQ assay over ED50 for the hot plate assay (hot plate stimulus): 4.5; ED50 (PBQ-induced writhing [3]; Mus musculus, 20 min, read-out: PBQ (20 min.) ED50, dose reducing the number of writhes by 50%): 0.6 mg/kg
H-Tyr-D-Ala-Gly-Phe(NMe)-Gly-ol [DAGO, reference compound]			0.800 ± 0.100 nm		950 ± 269 nM		28 ± 3.7 nM								
